Results: PubChem BioAssay AID1963966 (Molecular Pharmacology Branch, DTP, NCI, 2024)

Tested on: 935938-334-R-J1-PDC spheroids with HUVEC/MSC, viability
Assay: Anticancer human tumor 935938-334-R-J1-PDC patient-derived small intestine adenocarcinoma cell line growth inhibition [PI3K]
Details: for IC50: curve of first compound; for viability, T/C: stronger effect = lower value; active = viability on the fitted dose curve at most 10% of control; inactive = the rest
Outline: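 Multi-cell spheroids combine tumor cells with HUVEC and human MSCs, treated with targeted agents alone or with inavolisib, alpelisib, duvelisib or copanlisib. Concentrations fall in half-log steps from at or near clinical Cmax, or from 10 microM where Cmax is unknown; viability read-out.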

[1] = second compound 0.0316 µM, first compound 0.0316 µM
[2] = second compound 0.0316 µM, first compound 0.1 µM
[3] = second compound 0.0316 µM, first compound 0.316 µM
[4] = second compound 0.0316 µM, first compound 1 µM
[5] = second compound 0.0316 µM, first compound 3.16 µM
[6] = second compound 0.0316 µM, first compound 10 µM
[7] = second compound 0.1 µM, first compound 0.0316 µM
[8] = second compound 0.1 µM, first compound 0.1 µM
[9] = second compound 0.1 µM, first compound 0.316 µM
[10] = second compound 0.1 µM, first compound 1 µM
[11] = second compound 0.1 µM, first compound 3.16 µM
[12] = second compound 0.1 µM, first compound 10 µM
[13] = second compound 0.316 µM, first compound 0.0316 µM
[14] = second compound 0.316 µM, first compound 0.1 µM
[15] = second compound 0.316 µM, first compound 0.316 µM
[16] = second compound 0.316 µM, first compound 1 µM
[17] = second compound 0.316 µM, first compound 3.16 µM
[18] = second compound 0.316 µM, first compound 10 µM
[19] = second compound 1 µM, first compound 0.0316 µM
[20] = second compound 1 µM, first compound 0.1 µM
[21] = second compound 1 µM, first compound 0.316 µM
[22] = second compound 1 µM, first compound 1 µM
[23] = second compound 1 µM, first compound 3.16 µM
[24] = second compound 1 µM, first compound 10 µM
[25] = second compound 3.16 µM, first compound 0.0316 µM
[26] = second compound 3.16 µM, first compound 0.1 µM
[27] = second compound 3.16 µM, first compound 0.316 µM
[28] = second compound 3.16 µM, first compound 1 µM
[29] = second compound 3.16 µM, first compound 3.16 µM
[30] = second compound 3.16 µM, first compound 10 µM
[31] = second compound 10 µM, first compound 0.0316 µM
[32] = second compound 10 µM, first compound 0.1 µM
[33] = second compound 10 µM, first compound 0.316 µM
[34] = second compound 10 µM, first compound 1 µM
[35] = second compound 10 µM, first compound 3.16 µM
[36] = second compound 10 µM, first compound 10 µM
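Note: compound exposure lasted seven days before viability was read.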
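Throughout, for viability, T/C: percent of vehicle DMSO treated spheroid viability so 100% = untreated.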

CCCS(=O)(=O)Nc1ccc(F)c(C(=O)c2c[nH]c3ncc(-c4ccc(Cl)cc4)cc23)c1F + Cc1nc(NC(=O)N2CCCC2C(N)=O)sc1-c1ccnc(C(C)(C)C(F)(F)F)c1
0.0316 µM: IC50 (second compound 10 µM)
6.36 µM: IC50 (second compound 0.0316 µM)
5.52 µM: IC50 (second compound 1 µM)
inactive: viability, T/C [1] 85.6% | viability, T/C [2] 113% | viability, T/C [3] 98.5% | viability, T/C [4] 97.6% | viability, T/C [5] 94.1% | viability, T/C [6] 21.5% | viability, T/C [7] 90.2% | viability, T/C [8] 75.4% | viability, T/C [9] 105% | viability, T/C [10] 112% | viability, T/C [11] 98.2% | viability, T/C [12] 22.3% | viability, T/C [13] 82% | viability, T/C [14] 110% | viability, T/C [15] 88.9% | viability, T/C [16] 95.5% | viability, T/C [17] 81.2% | viability, T/C [18] 17.6% | viability, T/C [19] 75.3% | viability, T/C [20] 85% | viability, T/C [21] 88% | viability, T/C [22] 74.1% | viability, T/C [23] 77.1% | viability, T/C [24] 21.2% | viability, T/C [25] 63.1% | viability, T/C [26] 52.7% | viability, T/C [27] 69% | viability, T/C [28] 65.5% | viability, T/C [29] 67.5% | viability, T/C [30] 22.1% | viability, T/C [31] 36.9% | viability, T/C [32] 47.2% | viability, T/C [33] 54.2% | viability, T/C [34] 51.7% | viability, T/C [35] 54.4% | viability, T/C [36] 18.2%
5.57 µM: IC50 (second compound 0.316 µM)
4.6 µM: IC50 (second compound 3.16 µM)
6.49 µM: IC50 (second compound 0.1 µM)

C[C@@H](NC(=O)c1ncnc(N)c1Cl)c1ncc(C(=O)Nc2cc(C(F)(F)F)c(Cl)cn2)s1 + Cc1nc(NC(=O)N2CCCC2C(N)=O)sc1-c1ccnc(C(C)(C)C(F)(F)F)c1
6.67 µM: IC50 (second compound 3.16 µM)
> 10 µM: IC50 (second compound 0.0316 µM) | IC50 (second compound 0.1 µM) | IC50 (second compound 0.316 µM) | IC50 (second compound 1 µM)
inactive: viability, T/C [1] 112% | viability, T/C [2] 100% | viability, T/C [3] 98.7% | viability, T/C [4] 88.1% | viability, T/C [5] 90.7% | viability, T/C [6] 81.6% | viability, T/C [7] 94.1% | viability, T/C [8] 108% | viability, T/C [9] 101% | viability, T/C [10] 115% | viability, T/C [11] 95.5% | viability, T/C [12] 68.6% | viability, T/C [13] 104% | viability, T/C [14] 108% | viability, T/C [15] 109% | viability, T/C [16] 87.8% | viability, T/C [17] 89.8% | viability, T/C [18] 78% | viability, T/C [19] 105% | viability, T/C [20] 80.4% | viability, T/C [21] 87.4% | viability, T/C [22] 89.5% | viability, T/C [23] 79.9% | viability, T/C [24] 68.2% | viability, T/C [25] 53.6% | viability, T/C [26] 55.6% | viability, T/C [27] 79.6% | viability, T/C [28] 62% | viability, T/C [29] 61.9% | viability, T/C [30] 31.2% | viability, T/C [31] 50.6% | viability, T/C [32] 63.9% | viability, T/C [33] 41.4% | viability, T/C [34] 44.5% | viability, T/C [35] 37.2% | viability, T/C [36] 22.8%
0.272 µM: IC50 (second compound 10 µM)

Cn1ncnc1[C@H]1c2n[nH]c(=O)c3cc(F)cc(c23)N[C@@H]1c1ccc(F)cc1 + Cc1nc(NC(=O)N2CCCC2C(N)=O)sc1-c1ccnc(C(C)(C)C(F)(F)F)c1
< 0.000316 µM: IC50 (second compound 10 µM)
0.0161 µM: IC50 (second compound 3.16 µM)
> 0.1 µM: IC50 (second compound 0.0316 µM) | IC50 (second compound 0.1 µM) | IC50 (second compound 0.316 µM) | IC50 (second compound 1 µM)
inactive: viability, T/C (second compound 0.0316 µM, first compound 0.000316 µM) 83.6% | viability, T/C (second compound 0.0316 µM, first compound 0.001 µM) 95.8% | viability, T/C (second compound 0.0316 µM, first compound 0.00316 µM) 112% | viability, T/C (second compound 0.0316 µM, first compound 0.01 µM) 87.8% | viability, T/C [1] 72.1% | viability, T/C [2] 99% | viability, T/C (second compound 0.1 µM, first compound 0.000316 µM) 81% | viability, T/C (second compound 0.1 µM, first compound 0.001 µM) 98.7% | viability, T/C (second compound 0.1 µM, first compound 0.00316 µM) 99.9% | viability, T/C (second compound 0.1 µM, first compound 0.01 µM) 67.5% | viability, T/C [7] 84.2% | viability, T/C [8] 83.5% | viability, T/C (second compound 0.316 µM, first compound 0.000316 µM) 89.1% | viability, T/C (second compound 0.316 µM, first compound 0.001 µM) 67.3% | viability, T/C (second compound 0.316 µM, first compound 0.00316 µM) 78% | viability, T/C (second compound 0.316 µM, first compound 0.01 µM) 61.4% | viability, T/C [13] 69.7% | viability, T/C [14] 78.7% | viability, T/C (second compound 1 µM, first compound 0.000316 µM) 62.2% | viability, T/C (second compound 1 µM, first compound 0.001 µM) 70% | viability, T/C (second compound 1 µM, first compound 0.00316 µM) 67.2% | viability, T/C (second compound 1 µM, first compound 0.01 µM) 57.6% | viability, T/C [19] 60% | viability, T/C [20] 55.4% | viability, T/C (second compound 3.16 µM, first compound 0.000316 µM) 63.1% | viability, T/C (second compound 3.16 µM, first compound 0.001 µM) 53.7% | viability, T/C (second compound 3.16 µM, first compound 0.00316 µM) 46.6% | viability, T/C (second compound 3.16 µM, first compound 0.01 µM) 58.2% | viability, T/C [25] 51.7% | viability, T/C [26] 42% | viability, T/C (second compound 10 µM, first compound 0.000316 µM) 39% | viability, T/C (second compound 10 µM, first compound 0.001 µM) 38.7% | viability, T/C (second compound 10 µM, first compound 0.00316 µM) 43.8% | viability, T/C (second compound 10 µM, first compound 0.01 µM) 33% | viability, T/C [31] 50.5% | viability, T/C [32] 38.5%
